Measurements: US12479858B2, “Macrocyclic compounds as sting agonists and methods and uses thereof” (Lupin Limited, priority 2019, dated 2025)
Where two headings read alike, the source gives them in different places.

How the values were obtained:
[1] = snar bond, 15-membered ring, (E)-but-2-ene-1,4-diamine 2HCl/DIPEA
[2] = the molecule shown is the open-chain precursor; snar bond; 15-membered ring; (E)-but-2-ene-1,4-diamine 2HCl/DIPEA; EtOH/THF 3:1; 46.0 mM; 105.0 °C

Compound: CCOC(=O)c1cc(OC[C@H](COc2cc(C(=O)OC(C)(C)C)cc([N+](=O)[O-])c2Cl)N2C3CCC2COC3)c(Cl)c([N+](=O)[O-])c1
- ring closure, crude yield ([1]; the molecule shown is the open-chain precursor, EtOH, 121.0 mM, 105.0 °C): 89.8%

Compound: CCOC(=O)c1cc(OCCCOc2cc(C(N)=O)cc([N+](=O)[O-])c2Cl)c(Cl)c([N+](=O)[O-])c1
- ring closure, crude yield ([1]; the molecule shown is the open-chain precursor, EtOH/THF 3:1, 99.5 mM, 120.0 °C): 73%

Compound: diethyl (E)-7-(8-oxa-3-azabicyclo[3.2.1]octan-3-yl)-1,13-dinitro-7,8,14,15,18,19-hexahydro-6H-dibenzo[b,j][1,12]dioxa[4,9]diazacyclopentadecine-3,11-dicarboxylate
- ring closure, crude yield ([1]; EtOH/THF 7.4:1, 148.0 mM, 110.0 °C): 88%

Compound: CCOC(=O)c1cc(OCCCOc2cc(C(=O)OC(C)(C)C)cc([N+](=O)[O-])c2Cl)c(Cl)c([N+](=O)[O-])c1
- ring closure, isolated yield [2]: 90%

Compound: CCOC(=O)c1cc(OCC(COc2cc(C(=O)OCC)cc([N+](=O)[O-])c2Cl)N2CCOCC2)c(Cl)c([N+](=O)[O-])c1
- ring closure, crude yield ([1]; the molecule shown is the open-chain precursor, EtOH/THF 7:1, 156.5 mM, 110.0 °C): 88%
